Assay results reported in US4698327A, “Novel glycopeptide derivatives” (priority 1986, dated 1987).
≈ marks a conversion by molar mass, not a printed value.

Experiments:
[1] = test system: Staphylococcus aureus S13E; format: cell-based; details: agar dilution
[2] = test system: Klebsiella pneumoniae X68; experiment: MIC, standard agar-dilution assay; format: cell-based
[3] = test system: Streptococcus sp. group D 2041; experiment: MIC, standard agar-dilution assay; format: cell-based
Streptococcus pneumoniae = Streptococcus pneumoniae infection in mice; two doses, administered subcutaneously
[4] = test system: Streptococcus faecium ATCC 9790; experiment: MIC, standard agar-dilution assay; format: cell-based
[5] = test system: Haemophilus influenzae C.L.; experiment: MIC, standard agar-dilution assay; format: cell-based
[6] = test system: Staphylococcus aureus V41; experiment: MIC, standard agar-dilution assay; format: cell-based
[7] = test system: Streptococcus pyogenes C203; experiment: MIC, standard agar-dilution assay; format: cell-based
[8] = test system: Staphylococcus aureus X400; experiment: MIC, standard agar-dilution assay; format: cell-based
[9] = test system: Klebsiella pneumoniae X26; experiment: MIC, standard agar-dilution assay; format: cell-based
[10] = test system: Staphylococcus epidermidis EPI1; format: cell-based; details: agar dilution
Escherichia coli EC14 = experiment: MIC, standard agar-dilution assay; format: cell-based
Streptococcus pyogenes = Streptococcus pyogenes infection in mice; two doses, administered subcutaneously
Escherichia coli TEM = experiment: MIC, standard agar-dilution assay; format: cell-based
[11] = test system: Haemophilus influenzae 76; experiment: MIC, standard agar-dilution assay; format: cell-based
[12] = test system: Streptococcus pneumoniae Park 1; format: cell-based; details: agar dilution
Escherichia coli N10 = experiment: MIC, standard agar-dilution assay; format: cell-based
[13] = test system: Klebsiella pneumoniae KAE; experiment: MIC, standard agar-dilution assay; format: cell-based
[14] = test system: Staphylococcus epidermidis 222; experiment: MIC, standard agar-dilution assay; format: cell-based
Staphylococcus aureus = Staphylococcus aureus infection in mice; two doses, administered subcutaneously
[15] = test system: Staphylococcus aureus NRRL B313; details: agar dilution

| SMILES | MIC [1] [µg/mL] | MIC [2] [µg/mL] | MIC [3] [µg/mL] | ED50 (Streptococcus pneumoniae) [mg/kg/2] | MIC [4] [µg/mL] | MIC [5] [µg/mL] | MIC [6] [µg/mL] | MIC [7] [µg/mL] | MIC [8] [µg/mL] | MIC [9] [µg/mL] | MIC [10] [µg/mL] | MIC (Escherichia coli EC14) [µg/mL] | ED50 (Streptococcus pyogenes) [mg/kg/2] | MIC (Escherichia coli TEM) [µg/mL] | MIC [11] [µg/mL] | MIC [12] [µg/mL] | MIC (Escherichia coli N10) [µg/mL] | MIC [13] [µg/mL] | MIC [14] [µg/mL] | MIC [15] [µg/mL] | other results |
| --- | --- | --- | --- | --- | --- | --- | --- | --- | --- | --- | --- | --- | --- | --- | --- | --- | --- | --- | --- | --- | --- |
| CCCCCCCCCCNC1(C)CC(OC2C(Oc3c4cc5cc3Oc3ccc(cc3Cl)C(O)C3NC(=O)C(NC(=O)C5NC(=O)C(CC(N)=O)NC(=O)C(NC(=O)C(CC(C)C)NC)C(O)c5ccc(c(Cl)c5)O4)c4ccc(O)c(c4)-c4c(O)cc(O)cc4C(C(=O)O)NC3=O)OC(CO)C(O)C2O)OC(C)C1O (stereo not drawn) [Compound 2, N^van -(n-decyl)vancomycin] | 0.25 (≈ 0.157 µM) | > 128 | 0.25 (≈ 0.157 µM) | 0.51 | 0.25 (≈ 0.157 µM) | 128 (≈ 80.5 µM) | 0.25 (≈ 0.157 µM) | 0.06 (≈ 0.0377 µM) | 0.25 (≈ 0.157 µM) | > 128 | 0.25 (≈ 0.157 µM) | > 128 | 1.6 | > 128 | 128 (≈ 80.5 µM) | 0.125 (≈ 0.0786 µM) | > 128 | > 128 | 0.25 (≈ 0.157 µM) |  | ED50 (Staphylococcus aureus): 1.8 mg/kg/2 |
| CCCCCCCCCCCCNC1(C)CC(OC2C(Oc3c4cc5cc3Oc3ccc(cc3Cl)C(O)C3NC(=O)C(NC(=O)C5NC(=O)C(CC(N)=O)NC(=O)C(NC(=O)C(CC(C)C)NC)C(O)c5ccc(c(Cl)c5)O4)c4ccc(O)c(c4)-c4c(O)cc(O)cc4C(C(=O)O)NC3=O)OC(CO)C(O)C2O)OC(C)C1O (stereo not drawn) [Compound 1, N^van --(n-dodecyl)vancomycin] | 0.25 (≈ 0.155 µM) | > 128 | 0.125 (≈ 0.0773 µM) | 0.42 | 0.25 (≈ 0.155 µM) | > 128 | 0.25 (≈ 0.155 µM) | 0.125 (≈ 0.0773 µM) | 0.25 (≈ 0.155 µM) | > 128 | 0.5 (≈ 0.309 µM) | > 128 | 0.31 | > 128 | > 128 | 0.25 (≈ 0.155 µM) | > 128 | > 128 |  | 0.25 (≈ 0.155 µM) | ED50 (Staphylococcus aureus): > 5 mg/kg/2 |
| CCCCNC1(C)CC(OC2C(Oc3c4cc5cc3Oc3ccc(cc3Cl)C(O)C3NC(=O)C(NC(=O)C5NC(=O)C(CC(N)=O)NC(=O)C(NC(=O)C(CC(C)C)NC)C(O)c5ccc(c(Cl)c5)O4)c4ccc(O)c(c4)-c4c(O)cc(O)cc4C(C(=O)O)NC3=O)OC(CO)C(O)C2O)OC(C)C1O (stereo not drawn) [Compound 17, N^van --(n-butyl)vancomycin] | 1 (≈ 0.664 µM) | > 128 | 4 (≈ 2.66 µM) |  | 2 (≈ 1.33 µM) | 128 (≈ 85 µM) | 1 (≈ 0.664 µM) | 1 (≈ 0.664 µM) | 1 (≈ 0.664 µM) | > 128 | 4 (≈ 2.66 µM) | > 128 |  | > 128 | 128 (≈ 85 µM) | 0.5 (≈ 0.332 µM) | > 128 | > 128 | 2 (≈ 1.33 µM) | 1 (≈ 0.664 µM) |  |
| CCCCCCCCNC1(C)CC(OC2C(Oc3c4cc5cc3Oc3ccc(cc3Cl)C(O)C3NC(=O)C(NC(=O)C5NC(=O)C(CC(N)=O)NC(=O)C(NC(=O)C(CC(C)C)NC)C(O)c5ccc(c(Cl)c5)O4)c4ccc(O)c(c4)-c4c(O)cc(O)cc4C(C(=O)O)NC3=O)OC(CO)C(O)C2O)OC(C)C1O (stereo not drawn) [Compound 7, N^van --(n-octyl)vancomycin] | 0.25 (≈ 0.16 µM) | > 128 | 0.5 (≈ 0.32 µM) | 0.44 | 0.25 (≈ 0.16 µM) | 32 (≈ 20.5 µM) | 0.25 (≈ 0.16 µM) | 0.125 (≈ 0.0801 µM) | 0.25 (≈ 0.16 µM) | > 128 | 1 (≈ 0.64 µM) | > 128 | 0.98 | > 128 | 32 (≈ 20.5 µM) |  | > 128 | > 128 | 0.5 (≈ 0.32 µM) | 0.25 (≈ 0.16 µM) | ED50 (Staphylococcus aureus): 3.4 mg/kg/2 |
| CCCCCCCCCCNC1(C)CC(OC2C(Oc3c4cc5cc3Oc3ccc(cc3Cl)C(O)C3NC(=O)C(NC(=O)C5NC(=O)C(CC(N)=O)NC(=O)C(NC(=O)C(N)CC(C)C)C(O)c5ccc(c(Cl)c5)O4)c4ccc(O)c(c4)-c4c(O)cc(O)cc4C(C(=O)O)NC3=O)OC(CO)C(O)C2O)OC(C)C1O (stereo not drawn) [Compound 26, N^van --(n-decyl)-A51568A] | 0.25 (≈ 0.159 µM) | > 128 | 0.5 (≈ 0.317 µM) |  | 0.5 (≈ 0.317 µM) | 128 (≈ 81.2 µM) | 0.25 (≈ 0.159 µM) | 0.25 (≈ 0.159 µM) | 0.25 (≈ 0.159 µM) | > 128 | 0.5 (≈ 0.317 µM) | > 128 |  | > 128 | 128 (≈ 81.2 µM) | 0.25 (≈ 0.159 µM) | > 128 | > 128 | 0.25 (≈ 0.159 µM) | 0.25 (≈ 0.159 µM) |  |
| CCCCCCCCCCNC1(C)CC(OC2C(Oc3c4cc5cc3Oc3ccc(cc3Cl)C(O)C(NC(=O)C(CC(C)C)[N+](C)(C)C)C(=O)NC(CC(N)=O)C(=O)NC5C(=O)NC3C(=O)NC(C(=O)NC(C(=O)[O-])c5cc(O)cc(O)c5-c5cc3ccc5O)C(O)c3ccc(c(Cl)c3)O4)OC(CO)C(O)C2O)OC(C)C1O (stereo not drawn) [Compound 124, N^van --(n-decyl)-M43A] | 0.5 (≈ 0.309 µM) | > 64 | 0.5 (≈ 0.309 µM) |  | 0.5 (≈ 0.309 µM) | > 64 | 0.5 (≈ 0.309 µM) | 0.25 (≈ 0.155 µM) | 0.5 (≈ 0.309 µM) | > 64 | 1 (≈ 0.618 µM) | 64 (≈ 39.6 µM) |  | > 64 | > 64 | 0.5 (≈ 0.309 µM) | > 64 | > 64 | 0.5 (≈ 0.309 µM) | 0.5 (≈ 0.309 µM) |  |
| CCCCCCCCNC1(C)CC(OC2C(Oc3c4cc5cc3Oc3ccc(cc3Cl)C(O)C(NC(=O)C(CC(C)C)N(C)CCCCCCCC)C(=O)NC(CC(N)=O)C(=O)NC5C(=O)NC3C(=O)NC(C(=O)NC(C(=O)O)c5cc(O)cc(O)c5-c5cc3ccc5O)C(O)c3ccc(c(Cl)c3)O4)OC(CO)C(O)C2O)OC(C)C1O (stereo not drawn) [Compound 9, N^van, N^leu --di(n-octyl)vancomycin] | 1 (≈ 0.597 µM) | > 128 | 2 (≈ 1.19 µM) |  | 1 (≈ 0.597 µM) | > 128 | 1 (≈ 0.597 µM) | 0.5 (≈ 0.299 µM) | 1 (≈ 0.597 µM) | > 128 | 4 (≈ 2.39 µM) | > 128 |  | > 128 | > 128 | 1 (≈ 0.597 µM) | > 128 | > 128 | 2 (≈ 1.19 µM) | 1 (≈ 0.597 µM) |  |
| CCCNC1(C)CC(OC2C(Oc3c4cc5cc3Oc3ccc(cc3Cl)C(O)C3NC(=O)C(NC(=O)C5NC(=O)C(CC(N)=O)NC(=O)C(NC(=O)C(CC(C)C)NC)C(O)c5ccc(c(Cl)c5)O4)c4ccc(O)c(c4)-c4c(O)cc(O)cc4C(C(=O)O)NC3=O)OC(CO)C(O)C2O)OC(C)C1O (stereo not drawn) [Compound 20, N^van --(n-propyl)vancomycin] | 1 (≈ 0.671 µM) | > 128 | 1 (≈ 0.671 µM) |  | 1 (≈ 0.671 µM) | 128 (≈ 85.8 µM) | 1 (≈ 0.671 µM) | 0.5 (≈ 0.335 µM) | 1 (≈ 0.671 µM) | > 128 | 4 (≈ 2.68 µM) | > 128 |  | > 128 | 128 (≈ 85.8 µM) | 0.5 (≈ 0.335 µM) | > 128 | > 128 | 1 (≈ 0.671 µM) | 1 (≈ 0.671 µM) |  |
